The text below walks through data of publication PMC9139979, “Features of ZED1227: The First-In-Class Tissue Transglutaminase Inhibitor Undergoing Clinical Evaluation for the Treatment of Celiac Disease” (Cells, 2022).

The nature of series [1]: Solubility in PBS (pH 7.4) and diluted HCl (pH 1.1) by HPLC. The format is physicochemical.
The target of another series is T1, hTG2 (Homo sapiens, UniProt P21980).
T1 construct: purchased Zedira T022
T1 sequence (P21980 1-687): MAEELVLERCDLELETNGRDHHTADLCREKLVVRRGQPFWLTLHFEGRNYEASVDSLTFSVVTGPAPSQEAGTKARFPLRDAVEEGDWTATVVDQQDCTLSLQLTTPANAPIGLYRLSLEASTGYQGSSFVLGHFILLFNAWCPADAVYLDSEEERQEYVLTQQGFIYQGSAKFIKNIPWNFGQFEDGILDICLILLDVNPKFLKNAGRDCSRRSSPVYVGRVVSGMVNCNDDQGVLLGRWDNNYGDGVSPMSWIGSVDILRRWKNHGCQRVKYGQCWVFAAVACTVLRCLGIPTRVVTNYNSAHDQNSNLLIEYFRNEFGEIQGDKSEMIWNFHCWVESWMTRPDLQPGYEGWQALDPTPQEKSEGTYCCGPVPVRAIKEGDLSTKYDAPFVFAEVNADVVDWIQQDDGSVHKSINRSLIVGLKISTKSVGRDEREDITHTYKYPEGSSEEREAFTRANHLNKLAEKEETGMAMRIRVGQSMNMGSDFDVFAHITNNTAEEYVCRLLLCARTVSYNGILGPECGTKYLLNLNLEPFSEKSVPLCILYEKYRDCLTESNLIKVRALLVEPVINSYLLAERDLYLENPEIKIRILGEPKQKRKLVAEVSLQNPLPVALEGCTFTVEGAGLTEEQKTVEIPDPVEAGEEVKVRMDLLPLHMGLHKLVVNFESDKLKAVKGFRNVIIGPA
The series is described as follows: Fluorescent transamidation assay (DCC-assay), hTG2. Format: biochemical. The note with it: recombinant human TG2, transamidation assay. How it is done: Inhibition data were determined using the fluorescent transamidation assay (dansylcadaverine incorporation into glutamine-donor substrate N,N-dimethyl casein, DCC-assay). Briefly, to 15 μL of ZED1227 solution (dissolved and serial diluted in 2% (v/v) DMSO/assay buffer), 285 μL assay buffer [47.5 mM tris(hydroxymethyl)aminomethane, 9.5 mM CaCl2, 9.5 mM glutathione, 2.4% (v/v) glycerol, 190 mM NaCl, pH 8.0] containing dansylcadaverine (15.9 μM), N,N-dimethyl casein (3.8 μM) and the indicated recombinant transglutaminase enzyme [0.95 μg/mL hTG1 (T035), 0.81 μg/mL hTG2 (T022), 0.83 μg/mL hTG6 (T021), all from Zedira] were added, mixed and the kinetic measurement started immediately. In the case of hFXIII-A2 (0.83 μg/mL, T027, Zedira), the assay buffer contained human α-thrombin (5.2 × 10^−3 U/μL, T056, Zedira). The mixture was incubated for 20 min at room temperature to activate FXIII. In the case of hTG3a (0.81 μg/mL, T013, Zedira), full enzymatic activity was obtained by incubation for 80 min at 37 °C in assay buffer before addition of the inhibitor and start of the kinetics.
Fluorescence emission was continuously monitored for 30 min at λem = 500 nm (λex = 330 nm) and 37 °C using a CLARIOstar fluorescence plate reader (BMG Labtech, Ortenberg, Germany). All measurements were performed in triplicate. The respective IC50 (and IC90 for TG2) values were calculated by non-linear regression using the MARS software package (BMG Labtech). An irreversible-acting inhibitor, such as ZED1227, should, correctly, be characterized by the second-order rate constant k2nd, as detailed by Keillor [46]. However, such data are rather abstract and difficult to comprehend.
To facilitate comparability during lead structure optimization and to roughly estimate concentrations needed at the target site, the apparent IC50 values (calculated by four-parameter non-linear fit by MARS software) for irreversible inhibitors are more instructive and are therefore reported. Further, we report the potency of commercially available reference inhibitors Z006 (“Z-DON”), Z013 (ZED754), and T101 (all Zedira). To gain deeper mechanistic insight, we discuss the second-order rate constants (k2nd) published for Z006 and ZED754 in relation to their respective IC50 values.

Another series deals with T2, hTG1 (Homo sapiens, UniProt P22735).
T2 construct: purchased Zedira T035
T2 sequence (P22735 1-817): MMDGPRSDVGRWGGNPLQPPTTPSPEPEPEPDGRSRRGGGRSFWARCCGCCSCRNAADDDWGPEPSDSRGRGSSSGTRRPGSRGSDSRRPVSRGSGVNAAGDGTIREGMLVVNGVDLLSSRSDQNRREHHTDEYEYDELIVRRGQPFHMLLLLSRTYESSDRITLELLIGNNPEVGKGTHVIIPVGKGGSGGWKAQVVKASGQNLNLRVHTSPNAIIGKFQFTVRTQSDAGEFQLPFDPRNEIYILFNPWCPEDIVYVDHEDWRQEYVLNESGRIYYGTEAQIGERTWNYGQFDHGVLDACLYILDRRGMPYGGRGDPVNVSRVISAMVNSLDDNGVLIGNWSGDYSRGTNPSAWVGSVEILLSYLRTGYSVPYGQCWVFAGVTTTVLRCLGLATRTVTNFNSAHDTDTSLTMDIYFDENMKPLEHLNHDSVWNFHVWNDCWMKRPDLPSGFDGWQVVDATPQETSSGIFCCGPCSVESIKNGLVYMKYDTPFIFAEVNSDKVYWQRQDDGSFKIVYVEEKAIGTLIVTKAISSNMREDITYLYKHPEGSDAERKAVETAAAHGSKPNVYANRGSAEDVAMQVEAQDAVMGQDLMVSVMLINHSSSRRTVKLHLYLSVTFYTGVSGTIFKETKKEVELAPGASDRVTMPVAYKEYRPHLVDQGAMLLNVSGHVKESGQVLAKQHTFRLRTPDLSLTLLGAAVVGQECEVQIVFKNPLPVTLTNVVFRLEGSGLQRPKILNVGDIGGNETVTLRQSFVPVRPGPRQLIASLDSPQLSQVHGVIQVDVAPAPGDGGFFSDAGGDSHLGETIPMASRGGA
Description: Fluorescent transamidation assay (DCC-assay), hTG1. The format is biochemical. The procedure: Inhibition data were determined using the fluorescent transamidation assay (dansylcadaverine incorporation into glutamine-donor substrate N,N-dimethyl casein, DCC-assay). Briefly, to 15 μL of ZED1227 solution (dissolved and serial diluted in 2% (v/v) DMSO/assay buffer), 285 μL assay buffer [47.5 mM tris(hydroxymethyl)aminomethane, 9.5 mM CaCl2, 9.5 mM glutathione, 2.4% (v/v) glycerol, 190 mM NaCl, pH 8.0] containing dansylcadaverine (15.9 μM), N,N-dimethyl casein (3.8 μM) and the indicated recombinant transglutaminase enzyme [0.95 μg/mL hTG1 (T035), 0.81 μg/mL hTG2 (T022), 0.83 μg/mL hTG6 (T021), all from Zedira] were added, mixed and the kinetic measurement started immediately. […]
Fluorescence emission was continuously monitored for 30 min at λem = 500 nm (λex = 330 nm) and 37 °C using a CLARIOstar fluorescence plate reader (BMG Labtech, Ortenberg, Germany). […] The respective IC50 (and IC90 for TG2) values were calculated by non-linear regression using the MARS software package (BMG Labtech). […]
To facilitate comparability during lead structure optimization and to roughly estimate concentrations needed at the target site, the apparent IC50 values (calculated by four-parameter non-linear fit by MARS software) for irreversible inhibitors are more instructive and are therefore reported. […]

The structures appear in SMILES notation. Values joined by “and” are separate entries in the source; they are usually repeats but may differ in a detail not shown here. Equal entries are not always repeated. Where two headings read alike, the source gives them in different places.

With `CCC(CC)CNC(=O)Cn1cccc(NC(=O)[C@H](CC/C=C/C(=O)OC)NC(=O)c2cncn2C)c1=O` [ZED1227, (S,E)-Methyl 7-(1-(2-(2-ethylbutylamino)-2-oxoethyl)-2-oxo-1,2-dihydropyridin-3-ylamino)-6-(1-methyl-1H-imidazole-5-carboxamido)-7-oxohept-2-enoate], the solubility is 100 µM and 50 µg/mL in series [1] (phosphate-buffered saline, aqueous buffer, PBS pH 7.4, read-out: Solubility at pH 7.4); 48900 µM and 25900 µg/mL in series [1] (simulated gastric fluid, diluted HCl pH 1.1, read-out: Solubility at pH 1.1). In addition, the IC90 at hTG2 is 0.3 µM. Further, the IC50 was 0.053 µM on hTG2 (apparent IC50 of irreversible inhibitor, read-out: App. IC50 hTG2) and 24.9 µM on hTG1 (recombinant, transamidation assay, read-out: App. IC50 hTG1). In addition, the “Selectivity hTG1 versus hTG2” value at hTG1 (ratio of app. IC50 values) was 469 fold.
